Here are results for seven compounds from ChEMBL document CHEMBL1201862, “PubChem BioAssay data set” (2004).

Some test systems named below: 786-0; A549; DU-145; EKVX; Hs-578T; IGROV-1; K562; MCF7; Malme-3M; NCI-H460; OVCAR-8; SF-268; SK-MEL-28; SK-MEL-5; SN12C; SW-620; T47D; U-251; UO-31; KM12.
Holding throughout (assay): NCI tumour cell line growth inhibition, 48 h

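Compound exposure: 48 hours, 5 concentrations, 96-well plates. GI50: concentration for 50% inhibition of growth.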 Calls of active or inactive are those of the source. Rule as the data show it: active = GI50 up to about 1.1 µM and inactive = higher.

Regarding `O=C(OCc1ccccc1CN1CCOCC1)c1ccc(Br)cc1`, the GI50 in the assay with 786-0 is > 100 µM (inactive); with A549 it was 45.6 µM (inactive); with DU-145, > 100 µM (inactive); in the assay with EKVX it was 55.1 µM (inactive); in the assay with Hs-578T it was 69.3 µM (inactive); in the assay with IGROV-1 it was 47.8 µM (inactive). For the same compound, the GI50 in the assay with K562 was 0.0209 µM (active); in the assay on MCF7 it was 39.6 µM (inactive); in the assay on Malme-3M, 23.3 µM (inactive); with NCI-H460 it was > 100 µM (inactive); in the assay with OVCAR-8, 85.1 µM (inactive); in the assay on SF-268, > 100 µM (inactive). The GI50 was 92 µM (inactive) with SK-MEL-28; 12.2 µM (inactive) in the assay on SK-MEL-5; 76 µM (inactive) with SN12C; > 100 µM (inactive) with SW-620; 43.5 µM (inactive) in the assay on T47D; 88.7 µM (inactive) with U-251. For the same compound, the GI50 in the assay on UO-31 was 95.7 µM (inactive).

For the compound `CCP(=O)(OC)C1=CCN(C(=O)OCC[Si](C)(C)C)CC1` (centres undefined), the GI50 with 786-0, in the assay with A549, in the assay on DU-145, in the assay with EKVX, in the assay with Hs-578T and in the assay with IGROV-1 was > 100 µM (inactive) in each case. Also, the GI50 in the assay with K562, in the assay on KM12, with MCF7, in the assay on Malme-3M, in the assay on NCI-H460 and in the assay on OVCAR-8 was > 100 µM (inactive) each time. Besides, the GI50 with SF-268, with SK-MEL-28, with SK-MEL-5, with SW-620, in the assay with T47D and in the assay on U-251 was > 100 µM (inactive) each time. Also, the GI50 in the assay on UO-31 is > 100 µM (inactive).

As to `CCOC(=O)c1ccc(C(=O)/C(C#N)=C2\CCCN2)[nH]1`, the GI50 is > 100 µM (inactive) in the assay on 786-0; 50.5 µM (inactive) in the assay with A549; > 100 µM (inactive) with DU-145; 11.7 µM (inactive) in the assay on EKVX; > 100 µM (inactive) in the assay on Hs-578T; > 100 µM (inactive) in the assay with IGROV-1. The GI50 in the assay with K562 was 52.6 µM (inactive); in the assay on KM12 it was 55 µM (inactive); in the assay on MCF7, 98.4 µM (inactive); in the assay on Malme-3M, > 100 µM (inactive); in the assay with NCI-H460, > 100 µM (inactive); with OVCAR-8, > 100 µM (inactive). Besides, the GI50 is > 100 µM (inactive) with SF-268; > 100 µM (inactive) in the assay with SK-MEL-28; 41.9 µM (inactive) in the assay with SK-MEL-5; > 100 µM (inactive) with SN12C; 79.4 µM (inactive) in the assay on SW-620; > 100 µM (inactive) with T47D. Moreover, the GI50 in the assay on U-251 and in the assay with UO-31 was > 100 µM (inactive) in each case.

With `O=C(Cn1c(=O)oc2ccc(C(=O)c3cccc(Cl)c3)cc21)c1ccccc1`, the GI50 in the assay on 786-0 is > 10 µM (inactive); in the assay with A549, 27.2 µM (inactive); in the assay with DU-145 it was > 100 µM (inactive); with EKVX it was 30.1 µM (inactive); with Hs-578T, > 100 µM (inactive); in the assay with IGROV-1, > 100 µM (inactive). Besides, the GI50 with K562 is 57.8 µM (inactive); with MCF7 it was 87.9 µM (inactive); with Malme-3M, 63 µM (inactive); with NCI-H460 it was 41.7 µM (inactive); in the assay on OVCAR-8, > 100 µM (inactive); in the assay with SF-268, > 100 µM (inactive). For the same compound, the GI50 in the assay on SK-MEL-28 is > 100 µM (inactive); in the assay with SK-MEL-5 it was 23.1 µM (inactive); in the assay on SN12C it was > 100 µM (inactive); in the assay with SW-620, 65.6 µM (inactive); with T47D, 4.53 µM (inactive); in the assay with U-251, > 100 µM (inactive). In addition, the GI50 with UO-31 is 99.8 µM (inactive).

Turning to `COc1cc([C@@H]2c3cc4c(cc3[C@@H](/N=C/c3ccc(C(=O)O[C@H]5C[C@H]6OC[C@@]6(OC(C)=O)[C@H]6[C@H](OC(=O)c7ccccc7)[C@]7(O)C[C@H](OC(=O)[C@H](OC(=O)c8ccc(/C=N/[C@@H]9c%10cc%11c(cc%10[C@@H](c%10cc(OC)c(O)c(OC)c%10)[C@H]%10C(=O)OC[C@@H]%109)OCO%11)cc8)[C@@H](NC(=O)c8ccccc8)c8ccccc8)C(C)=C([C@@H](OC(C)=O)C(=O)[C@]56C)C7(C)C)cc3)C3COC(=O)C32)OCO4)cc(C)c1O` (some centres undefined), the GI50 is 7.55 µM (inactive) in the assay with 786-0; 13.7 µM (inactive) with A549; 24.5 µM (inactive) in the assay on DU-145; 14.5 µM (inactive) in the assay on EKVX; > 46 µM (inactive) with Hs-578T; 14.7 µM (inactive) in the assay on IGROV-1. Besides, the GI50 in the assay with K562 was 2.19 µM (inactive); in the assay on KM12 it was 22.3 µM (inactive); in the assay with MCF7, 7.6 µM (inactive); in the assay with Malme-3M it was > 24 µM (inactive); with NCI-H460, 15.3 µM (inactive); in the assay with OVCAR-8, 17.9 µM (inactive). Moreover, the GI50 is > 31.5 µM (inactive) in the assay on SF-268; > 18.1 µM (inactive) in the assay with SK-MEL-28; 5.28 µM (inactive) with SK-MEL-5; 18.8 µM (inactive) in the assay on SN12C; 13.4 µM (inactive) in the assay on SW-620; > 50 µM (inactive) with T47D. Moreover, the GI50 in the assay on U-251 is 13.3 µM (inactive).

As to `COc1ccc(N2C(=O)/C(=C/c3ccc(N(CCC#N)CCC#N)cc3)N=C2c2ccccc2)c(OC)c1`, the GI50 with 786-0 is > 100 µM (inactive); in the assay with DU-145, > 100 µM (inactive); with EKVX, > 100 µM (inactive); in the assay on Hs-578T it was 50.6 µM (inactive); in the assay with IGROV-1 it was > 100 µM (inactive); in the assay on K562, 18.1 µM (inactive). Moreover, the GI50 is 35.5 µM (inactive) in the assay with KM12; 61.7 µM (inactive) in the assay with MCF7; > 100 µM (inactive) in the assay on Malme-3M; > 100 µM (inactive) with NCI-H460; 28.5 µM (inactive) in the assay with OVCAR-8; > 100 µM (inactive) in the assay on SF-268. The GI50 in the assay on SK-MEL-28 is > 100 µM (inactive); in the assay on SK-MEL-5 it was > 100 µM (inactive); in the assay on SN12C, > 100 µM (inactive); with SW-620 it was > 100 µM (inactive); in the assay with T47D it was 27.1 µM (inactive); in the assay on U-251 it was 48.2 µM (inactive). The GI50 with UO-31 is > 100 µM (inactive).

As for `CCN(CC)c1nc(=O)c(C(=O)C(C)(C)C)c(C(C)(C)C)o1`, the GI50 in the assay on 786-0, with A549, in the assay with DU-145, in the assay with EKVX, in the assay on Hs-578T and in the assay on IGROV-1 was > 100 µM (inactive) throughout. The GI50 with K562, in the assay on KM12, in the assay with MCF7, with Malme-3M, in the assay with NCI-H460 and in the assay with OVCAR-8 was > 100 µM (inactive) each time. In addition, the GI50 with SF-268, in the assay with SK-MEL-28, in the assay on SK-MEL-5, with SN12C, with SW-620 and in the assay with T47D was > 100 µM (inactive) throughout. Besides, the GI50 in the assay on U-251 was > 100 µM (inactive).
